Data: the supplement of paper PMC13380429

Columns and labels:
Calu-3 [1] = test: drug sensitivity score (DSS) for viability; higher = more toxic; extreme values may be limits of the assay; settings: 72 h
Vero E6 [2] = test: as above; settings: 72 h
U2OS [3] = test: as above; settings: 72 h
Caco-2 [4] = test: as above; settings: 72 h
HepG2 [5] = test: as above; settings: 72 h
HepG2 [6] = test: relative viability EC50 (midpoint between 100% and the lowest measured viability); higher = less toxic; settings: 72 h
[7] = system: A549-ACE2 infected with SARS-CoV-2; test: morphology score (similarity to uninfected cells); higher = more like uninfected cells; settings: 24 h
Calu-3 [8] = test: cell viability relative to DMSO; higher = less toxic; settings: 72 h
Vero E6 [9] = test: as above; settings: 72 h
U2OS [10] = test: as above; settings: 72 h
Caco-2 [11] = test: as above; settings: 72 h
HepG2 [12] = test: as above; settings: 72 h
A549-ACE2 = test: drug-induced phospholipidosis relative to tamoxifen; higher = more phospholipidosis
[13] = system: A549-ACE2 infected with SARS-CoV-2; test: cell count relative to DMSO; higher = less toxic; settings: 24 h
[14] = system: A549-ACE2 infected with SARS-CoV-2; test: SARS-CoV-2 infection rate relative to DMSO; higher = more infection; settings: 24 h
U2OS [15] = test: relative viability EC50 (midpoint between 100% and the lowest measured viability); higher = less toxic; settings: 72 h
Caco-2 [16] = test: as above; settings: 72 h
Calu-3 [17] = test: as above; settings: 72 h
Vero E6 [18] = test: as above; settings: 72 h

CC(C)C[C@H](NC(=O)CNC(=O)c1cc(Cl)ccc1Cl)B1OC(=O)C(CC(=O)O)(CC(=O)O)O1 [ixazomib-citrate]
Settings | drug sensitivity score | relative viability EC50 [nM]
Caco-2 [4] | 25.9 | –
Calu-3 [1] | 25.5 | –
HepG2 [5] | 17.2 | –
HepG2 [6] | – | 358
U2OS [3] | 22.4 | –
Vero E6 [2] | 19.6 | –

Settings | SARS-CoV-2 infection rate, [14] [%] | cell count, [13] [%] | cell viability, Caco-2 [11] [%] | cell viability, Calu-3 [8] [%] | cell viability, HepG2 [12] [%] | cell viability, U2OS [10] [%] | cell viability, Vero E6 [9] [%] | morphology score, [7]
1 nM | – | – | 105 | 107 | 106 | 107 | 106 | –
10 nM | – | – | 103 | 103 | 107 | 106 | 102 | –
0.1 µM | 81 | 97 | – | – | – | – | – | 0.41
100 nM | – | – | 22.9 | 27.9 | 98 | 69.6 | 72.5 | –
0.3 µM | 85 | 74 | – | – | – | – | – | 0.25
1 µM | 47 | 69 | – | – | – | – | – | 0.3
1000 nM | – | – | 6.1 | 5.6 | 6.3 | 0.4 | 11.5 | –
3 µM | 43 | 60 | – | – | – | – | – | 0.28
10000 nM | – | – | 7 | 4.8 | 0.3 | -0.3 | 4.8 | –

Settings | drug-induced phospholipidosis [%]
A549-ACE2, 0.3 µM, 24 h | 5.51

C=C1C(=O)O[C@@H]2[C@H]3O[C@]3(C)CC/C=C(\C)CC[C@@H]12 [parthenolide-(alternate-stereo)]
Settings | drug sensitivity score | relative viability EC50 [nM]
Caco-2 [4] | 3.07 | –
Caco-2 [16] | – | 2990
Calu-3 [1] | 0.733 | –
HepG2 [5] | 5.27 | –
HepG2 [6] | – | 2480
U2OS [3] | 5.23 | –
U2OS [15] | – | 2940
Vero E6 [2] | 2.37 | –

Settings | SARS-CoV-2 infection rate, [14] [%] | cell count, [13] [%] | cell viability, Caco-2 [11] [%] | cell viability, Calu-3 [8] [%] | cell viability, HepG2 [12] [%] | cell viability, U2OS [10] [%] | cell viability, Vero E6 [9] [%] | morphology score, [7]
1 nM | – | – | 98.5 | 102 | 102 | 100 | 102 | –
10 nM | – | – | 95.8 | 108 | 95.7 | 101 | 99.7 | –
0.1 µM | 101 | 101 | – | – | – | – | – | 0.0167
100 nM | – | – | 96.8 | 97.3 | 103 | 99.4 | 102 | –
0.3 µM | 99.3 | 102 | – | – | – | – | – | 0.157
1 µM | 104 | 100 | – | – | – | – | – | -0.0567
1000 nM | – | – | 98.67 | 109 | 94.2 | 97.7 | 102 | –
3 µM | 105 | 97.7 | – | – | – | – | – | -0.3
10000 nM | – | – | 45.4 | 128 | 22.5 | 12.2 | 52.3 | –

drug-induced phospholipidosis [%], A549-ACE2
Settings | 0.3 µM | 0.833333 µM | 3.33333 µM | 6.66667 µM | 10 µM
24 h | 1.51 | 0.313 | 6.15 | 18.1 | 24
48 h | 1.04 | -0.06 | 2.1 | 11.9 | 16.9
72 h | 3.01 | -1.59 | -0.616 | 4.96 | 9.42

FC(F)(F)c1ccc(CNc2ccc(Cc3c[nH]c4ncc(Cl)cc34)cn2)cn1 [pexidartinib]
Settings | drug sensitivity score | relative viability EC50 [nM]
Caco-2 [4] | 0 | –
Caco-2 [16] | – | > 10000
Calu-3 [1] | 0 | –
Calu-3 [17] | – | > 10000
HepG2 [5] | 1.2 | –
HepG2 [6] | – | > 10000
U2OS [3] | 0 | –
U2OS [15] | – | > 10000
Vero E6 [2] | 0 | –
Vero E6 [18] | – | > 10000

Settings | SARS-CoV-2 infection rate, [14] [%] | cell count, [13] [%] | cell viability, Caco-2 [11] [%] | cell viability, Calu-3 [8] [%] | cell viability, HepG2 [12] [%] | cell viability, U2OS [10] [%] | cell viability, Vero E6 [9] [%] | morphology score, [7]
1 nM | – | – | 81.7 | 108 | 107 | 94.2 | 99.7 | –
10 nM | – | – | 95.7 | 108 | 92.2 | 100 | 96.4 | –
100 nM | – | – | 98.2 | 97.6 | 105 | 97.9 | 103 | –
0.3 µM | 104 | 95 | – | – | – | – | – | -0.17
1000 nM | – | – | 94.6 | 102 | 94.5 | 102 | 95.3 | –
3 µM | 102 | 101 | – | – | – | – | – | 0.07
10 µM | 103 | 101 | – | – | – | – | – | 0.25
10000 nM | – | – | 94.5 | 90 | 80.7 | 96.8 | 113 | –
30 µM | 67 | 92 | – | – | – | – | – | 0.46

drug-induced phospholipidosis [%], A549-ACE2
Settings | 0.3 µM | 0.833333 µM | 3.33333 µM | 6.66667 µM | 10 µM | 30 µM
24 h | 1.33 | -1.52 | 1.3 | 5.68 | 7.59 | 11.6
48 h | 2.9 | -0.74 | 2.56 | 7.51 | 9.31 | 14.4
72 h | 4.54 | -1.68 | 3.26 | 9.4 | 15.6 | 20.7
